The target in assay [1] is T1, human ρ1 GABAA receptor (Homo sapiens, UniProt P24046).
T1 construct: gene GABRR1; ρ1-EM (flexible N-terminal region and intracellular M3-M4 loop deleted), homopentamer in saposin nanodiscs
The assay can be described thus: cryo-EM structure ([…] Å); TEVC inhibition in Xenopus oocytes; F283Y/F284Y ablates inhibition. Type of assay: cell-based.

Assay [2] concerns the target T1, human ρ1 GABAA receptor. Nature of the assay: cryo-EM structure with GABA; TEVC voltage-dependent block (Woodhull fit). Type of assay: cell-based.

Counter-ions that a name gives are not always drawn.

Usually IC50 stands for the concentration that gives 50% inhibition. As a reminder, the Kd is the free concentration of one partner at which half of the binding sites on the other are occupied at equilibrium, for simple one-to-one binding. Low readings indicate higher affinity, high ones lower affinity.

T1 sequence (P24046 22-479): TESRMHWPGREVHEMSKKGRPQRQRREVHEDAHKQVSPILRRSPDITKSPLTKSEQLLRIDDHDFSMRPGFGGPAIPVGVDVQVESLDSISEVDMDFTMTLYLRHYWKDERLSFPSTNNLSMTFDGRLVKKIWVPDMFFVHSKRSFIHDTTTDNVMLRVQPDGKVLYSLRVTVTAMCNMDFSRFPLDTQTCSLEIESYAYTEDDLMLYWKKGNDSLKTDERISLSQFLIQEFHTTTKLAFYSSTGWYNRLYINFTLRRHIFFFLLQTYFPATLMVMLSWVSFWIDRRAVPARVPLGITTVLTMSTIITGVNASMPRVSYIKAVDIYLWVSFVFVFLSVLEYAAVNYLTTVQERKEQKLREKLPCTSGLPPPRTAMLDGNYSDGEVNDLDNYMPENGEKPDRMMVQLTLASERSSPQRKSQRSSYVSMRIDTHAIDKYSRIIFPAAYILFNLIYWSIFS

At human ρ1 GABAA receptor [1], `C[C@]12CC[C@@H]3c4ccc(O)cc4CC[C@H]3[C@@H]1CC[C@@H]2O` [E2, β-estradiol] returned a half-maximal inhibitory concentration (IC50) of around 30 µM.
For `CC(=O)C1CCC2C3CC=C4CC(OS(=O)(=O)O)CCC4(C)C3CCC12C` (centres unmarked) [PS, pregnenolone sulfate], the Kd at human ρ1 GABAA receptor [2] stood at 36.3 µM.

These data come from article PMC11379708, “Divergent mechanisms of steroid inhibition in the human ρ1 GABAA receptor” (Nature Communications, 2024).
